Test results from article PMC9226124, “Macrocycle-stabilization of its interaction with 14-3-3 increases plasma membrane localization and activity of CFTR” (Nature Communications, 2022).
“And” between values parts separate entries of the source, which are not always exact repeats. Identical values can stand only once.

Columns and labels:
[1] = target: T1, 14-3-3β/CFTRpS753pS768 complex (Homo sapiens, UniProt P13569+P31946); assay: FP assay, 14-3-3β titration at constant compound concentration (apparent KD); format: binding; details: for Polarization: FC 100 uM, peptide 100 nM; for Polarization / FP signal, 14-3-3β titration / FP signal: replicates; for FP signal, 14-3-3β titration / FP signal: compound 100 μM; for Fluorescence polarization signal, 14-3-3β titration: FC-A (100 μM)
T1 construct: His6 (cleaved yes); made in house; peptide synthetic
T1 sequence (P31946 whole entry): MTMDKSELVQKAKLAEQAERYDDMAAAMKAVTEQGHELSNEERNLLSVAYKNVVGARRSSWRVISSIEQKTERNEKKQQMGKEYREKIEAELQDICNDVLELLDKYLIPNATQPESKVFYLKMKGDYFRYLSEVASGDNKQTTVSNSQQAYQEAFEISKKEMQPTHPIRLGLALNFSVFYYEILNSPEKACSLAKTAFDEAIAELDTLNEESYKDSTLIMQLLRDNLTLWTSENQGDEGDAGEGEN
T1 sequence (P13569 747-774 limits assumed): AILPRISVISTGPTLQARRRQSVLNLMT

[2] = target: T2, F508del-CFTR in BHK cells (Homo sapiens, UniProt P13569, DEL508-508); assay: FLIPR membrane potential (FMP) assay; format: cell-based, hamster; details: individual replicates
T2 construct: expressed in transfected cells; host or cells: baby hamster kidney (BHK) cells
T2 sequence (P13569 with tags, fused parts or gaps DEL508-508): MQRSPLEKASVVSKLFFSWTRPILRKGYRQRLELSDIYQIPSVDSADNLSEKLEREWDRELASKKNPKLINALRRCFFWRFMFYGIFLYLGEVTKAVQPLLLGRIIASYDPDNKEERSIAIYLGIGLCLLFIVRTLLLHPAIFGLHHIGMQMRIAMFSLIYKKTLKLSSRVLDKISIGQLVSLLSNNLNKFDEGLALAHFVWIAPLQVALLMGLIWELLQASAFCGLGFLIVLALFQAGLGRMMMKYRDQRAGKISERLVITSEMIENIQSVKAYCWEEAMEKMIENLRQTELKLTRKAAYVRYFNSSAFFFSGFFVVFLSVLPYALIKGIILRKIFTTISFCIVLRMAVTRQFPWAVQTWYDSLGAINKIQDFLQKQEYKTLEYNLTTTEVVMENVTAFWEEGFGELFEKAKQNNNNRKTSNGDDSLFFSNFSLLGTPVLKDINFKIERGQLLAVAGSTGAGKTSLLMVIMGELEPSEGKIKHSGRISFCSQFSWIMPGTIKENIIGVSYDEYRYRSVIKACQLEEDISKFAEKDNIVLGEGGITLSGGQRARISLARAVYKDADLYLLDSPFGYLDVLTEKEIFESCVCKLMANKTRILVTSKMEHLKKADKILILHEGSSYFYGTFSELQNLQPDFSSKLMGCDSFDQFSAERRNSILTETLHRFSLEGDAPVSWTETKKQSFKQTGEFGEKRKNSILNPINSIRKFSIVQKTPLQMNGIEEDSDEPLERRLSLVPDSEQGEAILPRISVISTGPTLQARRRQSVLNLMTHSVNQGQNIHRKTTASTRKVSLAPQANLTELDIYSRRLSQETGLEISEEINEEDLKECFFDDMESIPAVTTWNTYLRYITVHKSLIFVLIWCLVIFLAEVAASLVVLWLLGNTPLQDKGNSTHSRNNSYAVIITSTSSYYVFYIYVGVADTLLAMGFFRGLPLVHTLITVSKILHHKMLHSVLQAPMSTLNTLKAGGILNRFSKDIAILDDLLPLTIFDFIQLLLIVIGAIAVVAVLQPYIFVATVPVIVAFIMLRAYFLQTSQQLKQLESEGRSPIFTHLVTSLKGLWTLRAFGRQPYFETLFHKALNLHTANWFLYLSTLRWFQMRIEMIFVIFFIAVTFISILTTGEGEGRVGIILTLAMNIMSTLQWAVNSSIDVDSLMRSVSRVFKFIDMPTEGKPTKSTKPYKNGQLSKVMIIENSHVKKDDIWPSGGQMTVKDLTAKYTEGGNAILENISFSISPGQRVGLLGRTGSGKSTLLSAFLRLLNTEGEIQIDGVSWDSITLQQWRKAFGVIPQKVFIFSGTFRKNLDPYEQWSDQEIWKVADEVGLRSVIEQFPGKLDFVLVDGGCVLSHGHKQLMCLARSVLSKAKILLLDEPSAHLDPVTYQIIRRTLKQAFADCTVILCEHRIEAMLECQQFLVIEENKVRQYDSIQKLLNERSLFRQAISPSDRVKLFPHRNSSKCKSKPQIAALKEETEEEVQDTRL
Procedure, shortened: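 BHK cells expressing F508del-CFTR were incubated 24 h at 37 °C with 20 μM compound. FMP dye plus genistein was added in low-Cl⁻ buffer (pH 7.4), then forskolin after a 2 min baseline. Fluorescence was monitored 5 min; the value is the rate of fluorescence change.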

With C=CC(C)(C)OC[C@H]1O[C@H](O[C@@H]2C3=C([C@H](C)COC(C)=O)C[C@H](O)[C@]3(C)/C=C3/[C@@H](COC)CC[C@H]3[C@@H](C)[C@H]2O)[C@H](O)[C@@H](OC(C)=O)[C@@H]1O [FC-A, fusicoccin A, reference compound] the Polarization ([1]; 14-3-3β 119.2 pM, listed as FC) was 20 and 18, the “FP signal, 14-3-3β titration” value ([1]; 14-3-3β 119.2 pM) was 3.333 and 5.333 (2×) and the FP signal ([1]; 14-3-3β 139.2 pM) was 5 (2×) and 3. For the same compound, the Polarization ([1]; 14-3-3β 238.4 pM, listed as FC) was 22 and 21, the “FP signal, 14-3-3β titration” value ([1]; 14-3-3β 238.4 pM) was 3.333 and 4.333 and 2.333 and the FP signal ([1]; 14-3-3β 278.5 pM) was 6 and 5 and 4. For the same compound, the Polarization ([1]; 14-3-3β 476.8 pM, listed as FC) was 21 and 19 and 18, the “FP signal, 14-3-3β titration” value ([1]; 14-3-3β 476.8 pM) was 4.333 (2×) and 2.333 and the FP signal ([1]; 14-3-3β 556.9 pM) was 6 (2×) and 5. The Polarization ([1]; 14-3-3β 953.7 pM, listed as FC) was 21 and 20 and 18, the “FP signal, 14-3-3β titration” value ([1]; 14-3-3β 953.7 pM) was 4.333 (2×) and 6.333 and the FP signal ([1]; 14-3-3β 1.11389e-9 M) was 5 and 7 and 8. The Polarization ([1]; 14-3-3β 1.90735e-9 M, listed as FC) was 18 and 20 and 19, the “FP signal, 14-3-3β titration” value ([1]; 14-3-3β 1.90735e-9 M) was 0.3333 and 5.333 and 3.333 and the FP signal ([1]; 14-3-3β 2.22778e-9 M) was 6 and 8 and 5. For the same compound, the Polarization ([1]; 14-3-3β 3.8147e-9 M, listed as FC) was 21 and 19, the “FP signal, 14-3-3β titration” value ([1]; 14-3-3β 3.8147e-9 M) was 0.3333 and 3.333 and 2.333 and the FP signal ([1]; 14-3-3β 4.45557e-9 M) was 4 and 7 and 9. The Polarization ([1]; 14-3-3β 7.62939e-9 M, listed as FC) was 20 and 22 and 19, the “FP signal, 14-3-3β titration” value ([1]; 14-3-3β 7.62939e-9 M) was 6.333 and 3.333 and 1.333 and the FP signal ([1]; 14-3-3β 8.91113e-9 M) was 4 and 8 and 6. For the same compound, the Polarization ([1]; 14-3-3β 1.52588e-8 M, listed as FC) was 22 and 19, the “FP signal, 14-3-3β titration” value ([1]; 14-3-3β 1.52588e-8 M) was 1.333 and 7.333 and 4.333 and the FP signal ([1]; 14-3-3β 1.78223e-8 M) was 6 (2×) and 7. For the same compound, the Polarization ([1]; 14-3-3β 3.05176e-8 M, listed as FC) was 23 and 20 and 22, the “FP signal, 14-3-3β titration” value ([1]; 14-3-3β 3.05176e-8 M) was 2.333 and 4.333 and 5.333 and the FP signal ([1]; 14-3-3β 3.56445e-8 M) was 9 (2×) and 7. For the same compound, the Polarization ([1]; 14-3-3β 6.10352e-8 M, listed as FC) was 24 and 25, the “FP signal, 14-3-3β titration” value ([1]; 14-3-3β 6.10352e-8 M) was 7.333 and 6.333 (2×) and the FP signal ([1]; 14-3-3β 7.12891e-8 M) was 10 (2×) and 11. The Polarization ([1]; 14-3-3β 1.2207e-7 M, listed as FC) was 28 and 30, the “FP signal, 14-3-3β titration” value ([1]; 14-3-3β 1.2207e-7 M) was 5.333 and 9.333 and 6.333 and the FP signal ([1]; 14-3-3β 1.42578e-7 M) was 15 and 16 and 14. For the same compound, the Polarization ([1]; 14-3-3β 2.44141e-7 M) was 35, the “FP signal, 14-3-3β titration” value ([1]; 14-3-3β 2.44141e-7 M) was 9.333 and 10.3333 and 5.333 and the FP signal ([1]; 14-3-3β 2.85156e-7 M) was 24 and 22 (2×). The Polarization ([1]; 14-3-3β 4.88281e-7 M, listed as FC) was 48 and 46, the “FP signal, 14-3-3β titration” value ([1]; 14-3-3β 4.88281e-7 M) was 9.333 (2×) and 12.3333 and the FP signal ([1]; 14-3-3β 5.70313e-7 M) was 40 (2×) and 33. For the same compound, the Polarization ([1]; 14-3-3β 9.76563e-7 M, listed as FC) was 68 and 64 and 69, the “FP signal, 14-3-3β titration” value ([1]; 14-3-3β 9.76563e-7 M) was 18.3333 and 11.3333 and 16.3333 and the FP signal ([1]; 14-3-3β 1.14063e-6 M) was 66 and 63 and 57. For the same compound, the Polarization ([1]; 14-3-3β 1.95313e-6 M, listed as FC) was 98 and 96 and 97, the “FP signal, 14-3-3β titration” value ([1]; 14-3-3β 1.95313e-6 M) was 32.3333 and 30.3333 and 31.3333 and the FP signal ([1]; 14-3-3β 2.28125e-6 M) was 97 and 94 and 86. The Polarization ([1]; 14-3-3β 3.90625e-6 M, listed as FC) was 135 and 137, the “FP signal, 14-3-3β titration” value ([1]; 14-3-3β 3.90625e-6 M) was 47.3333 (2×) and 44.3333 and the FP signal ([1]; 14-3-3β 4.5625e-6 M) was 137 and 131 and 124. For the same compound, the Polarization ([1]; 14-3-3β 7.8125e-6 M, listed as FC) was 175 and 176, the “FP signal, 14-3-3β titration” value ([1]; 14-3-3β 7.8125e-6 M) was 71.3333 and 69.3333 and 64.3333 and the FP signal ([1]; 14-3-3β 9.125e-6 M) was 171 and 164 and 159. For the same compound, the Polarization ([1]; 14-3-3β 1.5625e-5 M, listed as FC) was 212 and 209, the “FP signal, 14-3-3β titration” value ([1]; 14-3-3β 1.5625e-5 M) was 98.3333 and 94.3333 (2×) and the FP signal ([1]; 14-3-3β 1.825e-5 M) was 202 and 191 and 192. The Polarization ([1]; 14-3-3β 3.125e-5 M, listed as FC) was 234 and 235 and 231, the “FP signal, 14-3-3β titration” value ([1]; 14-3-3β 3.125e-5 M) was 123.333 and 117.333 and 124.333 and the FP signal ([1]; 14-3-3β 3.65e-5 M) was 216 and 213 and 212. For the same compound, the Polarization ([1]; 14-3-3β 6.25e-5 M, listed as FC) was 246 and 249 and 248, the “FP signal, 14-3-3β titration” value ([1]; 14-3-3β 6.25e-5 M) was 146.333 and 138.333 and 142.333 and the FP signal ([1]; 14-3-3β 7.3e-5 M) was 227 and 226 and 224. For the same compound, the Polarization ([1]; 14-3-3β 0.000125 M, listed as FC) was 256 and 254, the “FP signal, 14-3-3β titration” value ([1]; 14-3-3β 0.000125 M) was 152.333 and 153.333 and 150.333 and the FP signal ([1]; 14-3-3β 0.000146 M) was 232 and 230 and 229. The Polarization ([1]; 14-3-3β 0.00025 M, listed as FC) was 260 and 261 and 258, the “FP signal, 14-3-3β titration” value ([1]; 14-3-3β 0.00025 M) was 165.333 and 161.333 and 167.333 and the “FP signal, 14-3-3β titration” value ([1]; 14-3-3β 0.0005 M) was 177.333 and 174.333 and 175.333. For the same compound, the “Fluorescence polarization signal, 14-3-3β titration” value (shortened to “Fluorescence polarization signal”) ([1]; 14-3-3β concentration 119.2 pM) was 3.333 and 5.333, the “Fluorescence polarization signal” value ([1]; 14-3-3β concentration 238.4 pM) was 3.333 and 4.333 and 2.333 and the “Fluorescence polarization signal” value ([1]; 14-3-3β concentration 476.8 pM) was 4.333 and 2.333. The “Fluorescence polarization signal” value ([1]; 14-3-3β concentration 953.7 pM) was 4.333 and 6.333, the “Fluorescence polarization signal” value ([1]; 14-3-3β concentration 6.10352e-8 M) was 7.333 and 6.333 and the “Fluorescence polarization signal” value ([1]; 14-3-3β concentration 1.2207e-7 M) was 5.333 and 9.333 and 6.333. For the same compound, the “Fluorescence polarization signal” value ([1]; 14-3-3β concentration 2.44141e-7 M) was 9.333 and 10.3333 and 5.333, the “Fluorescence polarization signal” value ([1]; 14-3-3β concentration 4.88281e-7 M) was 9.333 and 12.3333 and the “Fluorescence polarization signal” value ([1]; 14-3-3β concentration 9.76563e-7 M) was 18.3333 and 11.3333 and 16.3333. For the same compound, the “Fluorescence polarization signal” value ([1]; 14-3-3β concentration 1.95313e-6 M) was 32.3333 and 30.3333 and 31.3333, the “Fluorescence polarization signal” value ([1]; 14-3-3β concentration 3.90625e-6 M) was 47.3333 and 44.3333 and the “Fluorescence polarization signal” value ([1]; 14-3-3β concentration 7.8125e-6 M) was 71.3333 and 69.3333 and 64.3333. The “Fluorescence polarization signal” value ([1]; 14-3-3β concentration 1.5625e-5 M) was 98.3333 and 94.3333, the “Fluorescence polarization signal” value ([1]; 14-3-3β concentration 3.125e-5 M) was 123.333 and 117.333 and 124.333 and the “Fluorescence polarization signal” value ([1]; 14-3-3β concentration 6.25e-5 M) was 146.333 and 138.333 and 142.333. The “Fluorescence polarization signal” value ([1]; 14-3-3β concentration 0.000125 M) was 152.333 and 153.333 and 150.333, the “Fluorescence polarization signal” value ([1]; 14-3-3β concentration 0.00025 M) was 165.333 and 161.333 and 167.333 and the “Fluorescence polarization signal” value ([1]; 14-3-3β concentration 0.0005 M) was 177.333 and 174.333 and 175.333. The “FMP assay signal (Fig5c)” value ([2]; Compound alone) was 170.429 and 204.929 and 173.75 and 189.679, the “FMP assay signal (Fig5c)” value ([2]; With CFTR-inh172) was 23.571 and 18.107 and 23.429 and 27.536 and the “FMP assay signal (Fig5b)” value [2] was 224.714 and 247.893 and 215.429 and 224.357 and 209.61 and 238.08.
